Where a name gives a salt, the structure may show the parent alone.
Experiments:
Details in all cases: exposure time: 15 min to 3 h acute
Dugesia japonica [1] = test: crawl-out incidence (% planarians); higher = higher incidence or increase relative to vehicle control
Dugesia japonica [2] = test: speed in dark vs vehicle (% change vs vehicle); higher = higher incidence or increase relative to vehicle control
Procedure, shortened: (§1)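 Values are median percent changes in crawling speed of intact, fasted Dugesia japonica, measured in the dark or during blue light by automated tracking and normalised per worm to the plate's vehicle median. Single worms in 200 μL per well of 48-well plates were tested 15 min to 3 h after exposure, with 0.5% DMSO or water as vehicle, and worms that crawled out were excluded.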

Dugesia japonica [3] = test: C-shape incidence (% planarians (vehicle-normalised)); higher = higher incidence or increase relative to vehicle control
Procedure, shortened: (§2)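 Values are the incidence of each body shape or of any abnormal shape, ×100, relative to in-plate vehicle controls, and negatives are set to 0. Fasted D. japonica planarians (5–7 days), one per 200 μL well in sealed 48-well plates, were scored blind by hand within 15 minutes–3 hours of exposure to at least 5 concentrations; worms that crawled out were excluded.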

Dugesia japonica [4] = test: corkscrew incidence (% planarians (vehicle-normalised)); higher = higher incidence or increase relative to vehicle control
Procedure, shortened: as §2

Dugesia japonica [5] = test: stickiness incidence (% planarians (vehicle-normalised)); higher = higher incidence or increase relative to vehicle control
Procedure, shortened: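 In the Stickiness assay, fasted Dugesia japonica planarians were each placed in one well of a sealed 48-well plate containing 200 μL of solution, with 0.5% DMSO or water as vehicle. Testing took place 15 min–3 h after exposure to half- or quarter-log concentration series. Stickiness was recorded as a binary endpoint, and its incidence was expressed relative to in-plate vehicle incidence after pooling technical triplicates and removing worms that crawled out. Negative values were set to 0 and all values were multiplied by 100.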

Dugesia japonica [6] = test: hyperkinesis incidence (% planarians (vehicle-normalised)); higher = higher incidence or increase relative to vehicle control
Procedure, shortened: as §2

Dugesia japonica [7] = test: speed first 30 s blue light vs vehicle (% change vs vehicle); higher = higher incidence or increase relative to vehicle control
Procedure, shortened: as §1

Dugesia japonica [8] = test: speed second 30 s blue light vs vehicle (% change vs vehicle); higher = higher incidence or increase relative to vehicle control
Procedure, shortened: as §1

Dugesia japonica [9] = test: pharynx extrusion incidence (% planarians (vehicle-normalised)); higher = higher incidence or increase relative to vehicle control
Procedure, shortened: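 Pharynx extrusion was scored manually and blind as a body-shape category, and its incidence was normalised to in-plate vehicle controls. Individual intact, fasted Dugesia japonica were kept in 200 μL per well of 48-well plates and tested 15 min to 3 h after exposure in water or 0.5% DMSO vehicle. Negatives were set to 0, and worms that crawled out were excluded.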

Dugesia japonica [10] = test: loss of phototaxis incidence (% planarians (vehicle-normalised)); higher = higher incidence or increase relative to vehicle control
Procedure, shortened: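 The endpoint was loss of phototaxis, scored yes/no by automated object tracking in intact, fasted Dugesia japonica kept singly in wells. Plates had 48 wells holding 200 μL, and worms were tested 15 min to 3 h after exposure in 0.5% DMSO or water vehicle. The incidence rate ×100 was normalised to in-plate vehicle controls, with negatives set to 0 and escaped worms excluded.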

Dugesia japonica [11] = test: total locomotor bursts minus vehicle (bursts difference vs vehicle); higher = higher incidence or increase relative to vehicle control
Procedure, shortened: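 Fasted Dugesia japonica planarians, one per well of a sealed 48-well plate in 200 μL solution, were tested 15 min–3 h after exposure to half- or quarter-log concentration series. The vehicle was 0.5% DMSO or water. Total locomotor bursts, an unstimulated behaviour, came from image-based object tracking, with technical triplicates totalling n = 24. Each planarian's value had the plate vehicle-control median subtracted, without ×100 scaling. The value is the median normalised response, and crawled-out worms were excluded.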

Dugesia japonica [12] = test: noxious heat displacement strength vs vehicle (% change vs vehicle); higher = higher incidence or increase relative to vehicle control
Procedure, shortened: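 With automated object tracking, the scrunching assay gave displacement strength under noxious heat for intact, fasted Dugesia japonica, each normalised to its plate's vehicle median and summarised as the median percent change. Worms sat singly in 200 μL in 48-well plates and were tested 15 min to 3 h after exposure in 0.5% DMSO or water vehicle; those that crawled out were excluded.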

Dugesia japonica [13] = test: contracted body shape incidence (% planarians (vehicle-normalised)); higher = higher incidence or increase relative to vehicle control
Procedure, shortened: as §2

Dugesia japonica [14] = test: anxiety (time in outer well region) vs vehicle (% change vs vehicle); higher = higher incidence or increase relative to vehicle control
Procedure, shortened: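 Time in the outer portion of each well was tracked by software for individual planarians, excluding any that crawled out, and the median normalized response is given. Worms (D. japonica, fasted 5–7 days) sat one per well in 200 μL in sealed 48-well plates, were exposed to at least 5 concentrations with n = 24 per concentration in technical triplicates, and were screened within 15 minutes–3 hours. Normalization divided each response by, or reduced it by, the plate vehicle median and multiplied the result by 100.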

Dugesia japonica [15] = test: any abnormal body shape incidence (% planarians (vehicle-normalised)); higher = higher incidence or increase relative to vehicle control
Procedure, shortened: as §2

Dugesia japonica [16] = test: resting fraction in dark vs vehicle (difference in fraction x100 vs vehicle); higher = higher incidence or increase relative to vehicle control
Procedure, shortened: (§3)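 Values give the median resting fraction in the dark or under blue light, obtained by automated tracking with the plate's vehicle median subtracted from each worm and the difference multiplied by 100. Intact, fasted Dugesia japonica were placed one per well of a 48-well plate in 200 μL, eight per concentration per plate in technical triplicate. Tracking ran 15 min to 3 h after exposure in 0.5% DMSO or water vehicle, and any worm that crawled out was excluded.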

Dugesia japonica [17] = test: loss of heat-induced scrunching incidence (% planarians (vehicle-normalised)); higher = higher incidence or increase relative to vehicle control
Procedure, shortened: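 The incidence of worms lacking a scrunching response to a noxious heat stimulus, normalised to vehicle controls within each plate, is the value listed. It appears ×100 with negatives set to 0. Single D. japonica planarians in 200 μL per well of 48-well plates were exposed to at least 5 concentrations (n = 24 per concentration) and tested within 15 minutes–3 hours, excluding worms that crawled out.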

Dugesia japonica [18] = test: resting fraction in blue light vs vehicle (difference in fraction x100 vs vehicle); higher = higher incidence or increase relative to vehicle control
Procedure, shortened: as §3

`CN[C@H]1CC[C@@H](c2ccc(Cl)c(Cl)c2)c2ccccc21` [sertraline hydrochloride] (100 µM) gave a crawl-out incidence (Dugesia japonica [1]) of 4.17, a speed in dark (Dugesia japonica [2]) of 7.78 and a C-shape incidence (Dugesia japonica [3]) of 0. For the same compound, the corkscrew incidence (Dugesia japonica [4]) was 0, the stickiness incidence (Dugesia japonica [5]) was no more than 0 and the hyperkinesis incidence (Dugesia japonica [6]) was 91.3. The “speed first 30 s blue light” value (Dugesia japonica [7]) was -33.7, the “speed second 30 s blue light” value (Dugesia japonica [8]) was -33.9 and the pharynx extrusion incidence (Dugesia japonica [9]) was 0. The “loss of phototaxis incidence” value (Dugesia japonica [10]) was 4.35, the “total locomotor bursts minus vehicle” value (Dugesia japonica [11]) was -5.25 and the “noxious heat displacement strength” value (Dugesia japonica [12]) was -27.1. The “contracted body shape incidence” value (Dugesia japonica [13]) was 0, the anxiety (Dugesia japonica [14]) was 17.1 and the “any abnormal body shape incidence” value (Dugesia japonica [15]) was 91.3. For the same compound, the “resting fraction in dark” value (Dugesia japonica [16]) was 4.98, the “loss of heat-induced scrunching incidence” value (Dugesia japonica [17]) was 21.7 and the “resting fraction in blue light” value (Dugesia japonica [18]) was 3.91.

For `O=C(CCCN1CCC(O)(c2ccc(Br)cc2)CC1)c1ccc(F)cc1` [bromperidol] (3.16 µM), the crawl-out incidence (Dugesia japonica [1]) was 33.3, the speed in dark (Dugesia japonica [2]) was -33.9 and the C-shape incidence (Dugesia japonica [3]) was 4.76. For the same compound, the corkscrew incidence (Dugesia japonica [4]) was 14.3, the stickiness incidence (Dugesia japonica [5]) was no more than 0 and the hyperkinesis incidence (Dugesia japonica [6]) was 47.6. For the same compound, the “speed first 30 s blue light” value (Dugesia japonica [7]) was -55.1, the “speed second 30 s blue light” value (Dugesia japonica [8]) was -53.4 and the pharynx extrusion incidence (Dugesia japonica [9]) was 0. For the same compound, the “loss of phototaxis incidence” value (Dugesia japonica [10]) was no more than 0, the “total locomotor bursts minus vehicle” value (Dugesia japonica [11]) was 11 and the “noxious heat displacement strength” value (Dugesia japonica [12]) was -37. The “contracted body shape incidence” value (Dugesia japonica [13]) was 9.52, the anxiety (Dugesia japonica [14]) was -1.33 and the “any abnormal body shape incidence” value (Dugesia japonica [15]) was 57.1. For the same compound, the “resting fraction in dark” value (Dugesia japonica [16]) was 24, the “loss of heat-induced scrunching incidence” value (Dugesia japonica [17]) was 47.6 and the “resting fraction in blue light” value (Dugesia japonica [18]) was 28.6.

For `Cc1ncc2n1-c1ccc(Cl)cc1C(c1ccccc1F)=NC2` [midazolam] (100 µM), the crawl-out incidence (Dugesia japonica [1]) was 0, the speed in dark (Dugesia japonica [2]) was -70.7 and the C-shape incidence (Dugesia japonica [3]) was 20.8. For the same compound, the corkscrew incidence (Dugesia japonica [4]) was 0, the stickiness incidence (Dugesia japonica [5]) was 20.8 and the hyperkinesis incidence (Dugesia japonica [6]) was 70.8. The “speed first 30 s blue light” value (Dugesia japonica [7]) was -93, the “speed second 30 s blue light” value (Dugesia japonica [8]) was -87.7 and the pharynx extrusion incidence (Dugesia japonica [9]) was 4.17. The “loss of phototaxis incidence” value (Dugesia japonica [10]) was 29.2, the “total locomotor bursts minus vehicle” value (Dugesia japonica [11]) was 28.5 and the “noxious heat displacement strength” value (Dugesia japonica [12]) was -48.3. The “contracted body shape incidence” value (Dugesia japonica [13]) was 45.8, the anxiety (Dugesia japonica [14]) was 2.35 and the “any abnormal body shape incidence” value (Dugesia japonica [15]) was 95.8. The “resting fraction in dark” value (Dugesia japonica [16]) was 59.7, the “loss of heat-induced scrunching incidence” value (Dugesia japonica [17]) was 45.8 and the “resting fraction in blue light” value (Dugesia japonica [18]) was 68.2.

`O=C1CCc2ccc(OCCCCN3CCN(c4cccc(Cl)c4Cl)CC3)cc2N1` [aripiprazole] (100 µM) showed a crawl-out incidence (Dugesia japonica [1]) of 4.17, a speed in dark (Dugesia japonica [2]) of -64.8 and a C-shape incidence (Dugesia japonica [3]) of 60.9. For the same compound, the corkscrew incidence (Dugesia japonica [4]) was 0, the stickiness incidence (Dugesia japonica [5]) was no more than 0 and the hyperkinesis incidence (Dugesia japonica [6]) was 17.4. The “speed first 30 s blue light” value (Dugesia japonica [7]) was -88.7, the “speed second 30 s blue light” value (Dugesia japonica [8]) was -88.8 and the pharynx extrusion incidence (Dugesia japonica [9]) was 0. For the same compound, the “loss of phototaxis incidence” value (Dugesia japonica [10]) was 47.8, the “total locomotor bursts minus vehicle” value (Dugesia japonica [11]) was 55 and the “noxious heat displacement strength” value (Dugesia japonica [12]) was -49. The “contracted body shape incidence” value (Dugesia japonica [13]) was 0, the anxiety (Dugesia japonica [14]) was -67.2 and the “any abnormal body shape incidence” value (Dugesia japonica [15]) was 65.2. For the same compound, the “resting fraction in dark” value (Dugesia japonica [16]) was 56.9, the “loss of heat-induced scrunching incidence” value (Dugesia japonica [17]) was 78.3 and the “resting fraction in blue light” value (Dugesia japonica [18]) was 69.8.
